Measurements from patent US11331314B2, “Amine substituted triazole derivatives and uses thereof” (Bayer Pharma Aktiengesellschaft, priority 2017, dated 2022).

Tests used:
human V2 receptor = target: T1, human V2 receptor (Homo sapiens, UniProt P30518); test: Cellular in vitro assay for determining vasopressin receptor activity, V2 receptor cell line (CRE-luciferase); type: cell-based; settings: CHO cell line transfected with the human V2 receptor; agonist [Arg8]-vasopressin at EC50 concentration; read-out: IC50 hV2
T1 construct: expressed in transfected cells; host or cells: CHO K1 (ATCC) expressing firefly luciferase under a CRE-responsive promoter
T1 sequence (P30518 whole entry): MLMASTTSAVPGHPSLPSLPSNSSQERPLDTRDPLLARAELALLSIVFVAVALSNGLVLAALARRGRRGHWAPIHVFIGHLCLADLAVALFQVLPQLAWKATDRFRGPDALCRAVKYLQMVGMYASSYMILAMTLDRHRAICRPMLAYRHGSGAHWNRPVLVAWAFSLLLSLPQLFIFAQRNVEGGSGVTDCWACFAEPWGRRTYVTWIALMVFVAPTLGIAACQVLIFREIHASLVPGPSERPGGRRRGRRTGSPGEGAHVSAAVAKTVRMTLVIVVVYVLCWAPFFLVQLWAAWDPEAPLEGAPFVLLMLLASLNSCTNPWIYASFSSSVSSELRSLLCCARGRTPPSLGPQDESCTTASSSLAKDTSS

human V1a receptor = human V1a receptor (Homo sapiens, UniProt P37288); test: Cellular in vitro assay for determining vasopressin receptor activity, V1a receptor cell line (photoprotein luminescence); type: cell-based; settings: for IC50: CHO cell line transfected with the human V1a receptor, agonist [Arg8]-vasopressin at EC50 concentration, read-out: IC50 hV1a; for ratio IC50 hV2/hV1a: selectivity ratio of the cellular IC50 values
human V1a receptor, sequence (P37288 whole entry): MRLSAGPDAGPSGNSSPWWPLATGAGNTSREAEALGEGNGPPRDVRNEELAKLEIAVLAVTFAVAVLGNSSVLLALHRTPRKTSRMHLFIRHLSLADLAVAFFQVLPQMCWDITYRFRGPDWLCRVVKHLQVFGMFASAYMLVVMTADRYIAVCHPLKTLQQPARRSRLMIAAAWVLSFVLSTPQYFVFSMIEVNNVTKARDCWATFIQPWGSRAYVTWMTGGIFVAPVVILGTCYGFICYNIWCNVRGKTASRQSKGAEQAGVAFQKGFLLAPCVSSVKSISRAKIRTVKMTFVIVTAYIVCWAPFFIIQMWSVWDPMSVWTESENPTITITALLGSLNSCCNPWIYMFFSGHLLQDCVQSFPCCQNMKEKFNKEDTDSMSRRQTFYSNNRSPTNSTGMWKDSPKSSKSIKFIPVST
In short: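 CHO K1 cells stably expressing human V1a receptor with aequorin photoprotein, loaded overnight with coelenterazine. Compounds preincubated 10 min at various concentrations, then challenged with [Arg^8]-vasopressin at EC50 concentration. Calcium-driven luminescence read immediately; IC50 values derived.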

Compound | IC50 (human V2 receptor) | IC50 (human V1a receptor) | ratio IC50 hV2/hV1a (human V1a receptor)
O=C1CCC(CNc2nc(Cn3nc(-c4ccc(Cl)cc4)n(C[C@H](O)C(F)(F)F)c3=O)nn2-c2ccccc2Cl)N1 (single isomer, unassigned) [Example 64] | 4.35 nM | 0.8 nM | 5.5
NC(CNc1nc(Cn2nc(-c3ccc(Cl)cc3)n(C[C@H](O)C(F)(F)F)c2=O)nn1-c1ccccc1Cl)C(F)(F)F (single isomer, unassigned) [Example 8] | 1.69 nM | 0.31 nM | 5.5
O=CN1CCC(Nc2nc(Cn3nc(-c4ccc(Cl)cc4)n(C[C@H](O)C(F)(F)F)c3=O)nn2-c2ccccc2Cl)C1 (mixture of isomers) [Example 41, 3-{[1-(2-Chlorophenyl)-3-({3-(4-chlorophenyl)-5-oxo-4-[(2S)-3,3,3-trifluoro-2-hydroxypropyl]-4,5-dihydro-1H-1,2,4-triazol-1-yl}methyl)-1H-1,2,4-triazol-5-yl]amino}pyrrolidine-1-carbaldehyde] | 7.4 nM | 0.93 nM | 8.0
O=c1n(Cc2nc(NCC3(O)CC3)n(-c3ccccc3Cl)n2)nc(-c2ccc(Cl)cc2)n1C[C@H](O)C(F)(F)F [Example 54, 5-(4-Chlorophenyl)-2-{[1-(2-chlorophenyl)-5-{[(1-hydroxycyclopropyl)methyl]amino}-1H-1,2,4-triazol-3-yl]methyl}-4-[(2S)-3,3,3-trifluoro-2-hydroxypropyl]-2,4-dihydro-3H-1,2,4-triazol-3-one] | 1.56 nM | 0.54 nM | 2.9
CN(CCO)c1nc(Cn2nc(-c3ccc(Cl)cc3)n(C[C@H](O)C(F)(F)F)c2=O)nn1-c1ccccc1Cl [Example 84, 5-(4-Chlorophenyl)-2-({1-(2-chlorophenyl)-5-[(2-hydroxyethyl)(methyl)amino]-1H-1,2,4-triazol-3-yl}methyl)-4-[(2S)-3,3,3-trifluoro-2-hydroxypropyl]-2,4-dihydro-3H-1,2,4-triazol-3-one] | 12 nM | 0.83 nM | 14.4
O=c1n(Cc2nc(NCCO)n(-c3cccc(F)c3)n2)nc(-c2ccc(Cl)cc2)n1C[C@H](O)C(F)(F)F [Example 123, 5-(4-Chlorophenyl)-2-({1-(3-fluorophenyl)-5-[(2-hydroxyethyl)amino]-1H-1,2,4-triazol-3-yl}methyl)-4-[(2S)-3,3,3-trifluoro-2-hydroxypropyl]-2,4-dihydro-3H-1,2,4-triazol-3-one] | 4.59 nM | 2.15 nM | 2.1
CC1(O)CCN(c2nc(Cn3nc(-c4ccc(Cl)cc4)n(C[C@H](O)C(F)(F)F)c3=O)nn2-c2ccccc2Cl)C1 (mixture of isomers) [Example 29, 5-(4-Chlorophenyl)-2-({1-(2-chlorophenyl)-5-[3-hydroxy-3-methylpyrrolidin-1-yl]-1H-1,2,4-triazol-3-yl}methyl)-4-[(2S)-3,3,3-trifluoro-2-hydroxypropyl]-2,4-dihydro-3H-1,2,4-triazol-3-one] | 4.9 nM | 1.05 nM | 4.7
CS(=O)(=O)CCNc1nc(Cn2nc(-c3ccc(Cl)cc3)n(C[C@H](O)C(F)(F)F)c2=O)nn1-c1ccccc1Cl [Example 51, 5-(4-Chlorophenyl)-2-{[1-(2-chlorophenyl)-5-{[2-(methylsulfonyl)ethyl]amino}-1H-1,2,4-triazol-3-yl]methyl}-4-[(2S)-3,3,3-trifluoro-2-hydroxypropyl]-2,4-dihydro-3H-1,2,4-triazol-3-one] | 1.75 nM | 0.71 nM | 2.5
CC1(C)CN(c2nc(Cn3nc(-c4ccc(Cl)cc4)n(C[C@H](O)C(F)(F)F)c3=O)nn2-c2ccccc2Cl)CCO1 [Example 39, 5-(4-Chlorophenyl)-2-{[1-(2-chlorophenyl)-5-(2,2-dimethylmorpholin-4-yl)-1H-1,2,4-triazol-3-yl]methyl}-4-[(2S)-3,3,3-trifluoro-2-hydroxypropyl]-2,4-dihydro-3H-1,2,4-triazol-3-one] | 18 nM | 0.58 nM | 31.0
O=c1n(Cc2nc(N3CCC(O)C3)n(-c3ccccc3Cl)n2)nc(-c2ccc(Cl)cc2)n1C[C@H](O)C(F)(F)F (mixture of isomers) [Example 43, 5-(4-Chlorophenyl)-2-({1-(2-chlorophenyl)-5-[3-hydroxypyrrolidin-1-yl]-1H-1,2,4-triazol-3-yl}methyl)-4-[(2S)-3,3,3-trifluoro-2-hydroxypropyl]-2,4-dihydro-3H-1,2,4-triazol-3-one] | 4.4 nM | 0.42 nM | 10.5
CC(C)(C)OC(=O)N1CCC(O)(CNc2nc(Cn3nc(-c4ccc(Cl)cc4)n(C[C@H](O)C(F)(F)F)c3=O)nn2-c2ccccc2Cl)CC1 [Example 21, tert-Butyl 4-({[1-(2-chlorophenyl)-3-({3-(4-chlorophenyl)-5-oxo-4-[(2S)-3,3,3-trifluoro-2-hydroxypropyl]-4,5-dihydro-1H-1,2,4-triazol-1-yl}methyl)-1H-1,2,4-triazol-5-yl]amino}methyl)-4-hydroxypiperidine-1-carboxylate] | 35.5 nM | 2 nM | 17.8
CC(C)(O)CNc1nc(Cn2nc(-c3ccc(Cl)cc3)n(C[C@H](O)C(F)(F)F)c2=O)nn1-c1ccccc1Cl [Example 82, 5-(4-Chlorophenyl)-2-({1-(2-chlorophenyl)-5-[(2-hydroxy-2-methylpropyl)amino]-1H-1,2,4-triazol-3-yl}methyl)-4-[(2S)-3,3,3-trifluoro-2-hydroxypropyl]-2,4-dihydro-3H-1,2,4-triazol-3-one] | 6.47 nM | 0.86 nM | 7.5
CC(=O)NCCNc1nc(Cn2nc(-c3ccc(Cl)cc3)n(C[C@H](O)C(F)(F)F)c2=O)nn1-c1ccccc1Cl [Example 71, N-(2-{[1-(2-Chlorophenyl)-3-({3-(4-chlorophenyl)-5-oxo-4-[(2S)-3,3,3-trifluoro-2-hydroxypropyl]-4,5-dihydro-1H-1,2,4-triazol-1-yl}methyl)-1H-1,2,4-triazol-5-yl]amino}ethyl)acetamide] | 2.4 nM | 0.44 nM | 5.5
NC(CNc1nc(Cn2nc(-c3ccc(Cl)cc3)n(C[C@H](O)C(F)(F)F)c2=O)nn1-c1ccccc1Cl)C(F)(F)F (single isomer, unassigned) [Example 7] | 1.12 nM | 0.22 nM | 5.2
O=c1n(Cc2nc(N3CCC4OCCC43)n(-c3ccccc3Cl)n2)nc(-c2ccc(Cl)cc2)n1C[C@H](O)C(F)(F)F (stereo partly drawn) [Example 38, 5-(4-Chlorophenyl)-2-{[1-(2-chlorophenyl)-5-(hexahydro-4H-furo[3,2-b]pyrrol-4-yl)-1H-1,2,4-triazol-3-yl]methyl}-4-[(2S)-3,3,3-trifluoro-2-hydroxypropyl]-2,4-dihydro-3H-1,2,4-triazol-3-one] | 3.55 nM | 0.4 nM | 8.9
CC(C)(O)CNc1nc(Cn2nc(-c3ccc(Cl)cc3)n(C[C@H](O)C(F)(F)F)c2=O)nn1-c1ncccc1Cl [Example 98, 5-(4-Chlorophenyl)-2-({1-(3-chloropyridin-2-yl)-5-[(2-hydroxy-2-methylpropyl)amino]-1H-1,2,4-triazol-3-yl}methyl)-4-[(2S)-3,3,3-trifluoro-2-hydroxypropyl]-2,4-dihydro-3H-1,2,4-triazol-3-one] | 145 nM | 1.9 nM | 
O=c1n(Cc2nc(N3CCOC(C(F)(F)F)C3)n(CCC(F)(F)F)n2)nc(-c2ccc(Cl)cc2)n1C[C@H](O)C(F)(F)F (mixture of isomers) [Example 103, 5-(4-Chlorophenyl)-4-[(2S)-3,3,3-trifluoro-2-hydroxypropyl]-2-({5-[2-(trifluoromethyl)morpholin-4-yl]-1-(3,3,3-trifluoropropyl)-1H-1,2,4-triazol-3-yl}methyl)-2,4-dihydro-3H-1,2,4-triazol-3-one] | 245 nM | 30 nM | 8.2
O=c1n(Cc2nc(N3CCNC(C(F)(F)F)C3)n(CCC(F)(F)F)n2)nc(-c2ccc(Cl)cc2)n1C[C@H](O)C(F)(F)F (single isomer, unassigned) [Example 108] | 84 nM | 10.7 nM | 7.9
NC(=O)[C@H]1CC(F)(F)CN1c1nc(Cn2nc(-c3ccc(Cl)cc3)n(C[C@H](O)C(F)(F)F)c2=O)nn1-c1ccccc1Cl [Example 10, 1-[1-(2-Chlorophenyl)-3-({3-(4-chlorophenyl)-5-oxo-4-[(2S)-3,3,3-trifluoro-2-hydroxypropyl]-4,5-dihydro-1H-1,2,4-triazol-1-yl}methyl)-1H-1,2,4-triazol-5-yl]-4,4-difluoro-D-prolinamide] | 18.2 nM | 0.63 nM | 29.2
CC(C)(N)CNc1nc(Cn2nc(-c3ccc(Cl)cc3)n(C[C@H](O)C(F)(F)F)c2=O)nn1-c1ccccn1 [Example 93, 2-({5-[(2-Amino-2-methylpropyl)amino]-1-(pyridin-2-yl)-1H-1,2,4-triazol-3-yl}methyl)-5-(4-chlorophenyl)-4-[(2S)-3,3,3-trifluoro-2-hydroxypropyl]-2,4-dihydro-3H-1,2,4-triazol-3-one] | 3150 nM | 28 nM | 112.5
CC(C)(C)OC(=O)N1CCCC(O)(CNc2nc(Cn3nc(-c4ccc(Cl)cc4)n(C[C@H](O)C(F)(F)F)c3=O)nn2-c2ccccc2Cl)CC1 (mixture of isomers) [Example 19, tert-Butyl 4-({[1-(2-chlorophenyl)-3-({3-(4-chlorophenyl)-5-oxo-4-[(2S)-3,3,3-trifluoro-2-hydroxypropyl]-4,5-dihydro-1H-1,2,4-triazol-1-yl}methyl)-1H-1,2,4-triazol-5-yl]amino}methyl)-4-hydroxyazepane-1-carboxylate] | 38 nM | 2.55 nM | 14.9
